Measurements taken from US12226455B2, “Medical composition for treating cardiac wasting and cachexia” (RELAXERA Pharmazeutische GmbH & Co. KG, priority 2019, dated 2025).
Marks after values point to notes of the source that are not given here.

Key:
[1] = continuous subcutaneous infusion over 24 weeks; cited from earlier work
[2] = system: patients with advanced cancer in the hospice setting; experiment: Four-meter gait speed (4MGS) (clinical study); format: in vivo, human; conditions: n=20
Description: (§1) 30 patients with advanced cancer in the hospice setting are included randomized and double-blind in a clinical study to a 10-day continuous sc. or iv. infusion of either synthetic human relaxin-2 (25 micrograms/kg body weight/day) (n=20) or placebo (n=10). The following exploratory clinical end-points are assessed at baseline and during treatment (day 3 and day 10): • 1. Patients are asked to report their current level of both dyspnea and general wellbeing relative to baseline using seven-level Likert scales. • 2. In the context of this study, ability of self-care is defined as ability to perform the measures of personal daily hygiene (washing, tooth-brushing) without help. • 3. Congestion is assessed as percentage of patients showing ankle edema or rales upon auscultation. • 4. Plasma levels of NT-proBNP (N-terminal fragment of pro-brain natriuretic peptide), a biomarker of cardiac decompensation, are determined. • 5. The four-meter gait speed (4MGS) is measured.

NT-proBNP = experiment: Plasma levels of NT-proBNP, biomarker of cardiac decompensation (clinical study); format: in vivo, human; conditions: n=20; for Plasma NT-proBNP, median: 25 micrograms/kg body weight/day
Description: as §1

[3] = system: patients with advanced cancer in the hospice setting; experiment: Ability of self-care (personal daily hygiene without help), yes-or-no level (clinical study); format: in vivo, human; conditions: n=20
Description: as §1

[4] = system: patients with advanced cancer in the hospice setting; experiment: Level of dyspnea relative to baseline on a seven-level Likert scale (clinical study); format: in vivo, human; conditions: n=20
Description: as §1

[5] = system: patients with advanced cancer in the hospice setting; experiment: Congestion: ankle edema or rales upon auscultation, four-level scale (clinical study); format: in vivo, human; conditions: n=20
Description: as §1

[6] = system: patients with advanced cancer in the hospice setting; experiment: Level of general wellbeing relative to baseline on a seven-level Likert scale (clinical study); format: in vivo, human; conditions: 25 micrograms/kg body weight/day, n=20
Description: as §1

[7] = system: hospice patients with advanced, incurable cancer; experiment: Overall conclusion of the 10-day clinical study in hospice patients; format: in vivo, human; conditions: continuous treatment for 10 days
Description: as §1

[8] = Day 3, 25 micrograms/kg body weight/day
[9] = Day 10, 25 micrograms/kg body weight/day
[10] = Day 3, 25 micrograms/kg body weight/day continuous sc. or iv. infusion

In the case of human relaxin-2, the “Physiological changes under relaxin infusion” value [1] is given as “sustained physiological changes which closely mimicked those seen in human pregnancy”, the “Four-meter gait speed, median” value ([2]; Baseline) is given as 0.56 m/s and the “Unable to walk 4 m, % of patients” value ([2]; Baseline) is given as 35%. The “Unable to walk 4 m, absolute number of patients” value ([2]; Baseline) was 7, the “Four-meter gait speed, median” value [2, 8] was 0.66 m/s and the “Unable to walk 4 m, % of patients” value [2, 8] was 25%. The “Unable to walk 4 m, absolute number of patients” value [2, 8] was 5, the “Four-meter gait speed, median” value [2, 9] was 0.86* m/s and the “Unable to walk 4 m, % of patients” value [2, 9] was “(15)^# %”. The “Unable to walk 4 m, absolute number of patients” value [2, 9] was 3, the “Plasma NT-proBNP, median (IQR)” value (NT-proBNP; Baseline) was 3438 (597-4175) pg/ml and the “Plasma NT-proBNP, median” value (NT-proBNP; Day 3) was 1813 pg/mL. The “Plasma NT-proBNP, median” value (NT-proBNP; Day 10) was 778 pg/mL, the “Ability of self-care, absolute number of patients” value ([3]; Baseline) was 5 and the “Ability of self-care, percentage of patients” value ([3]; Baseline) was 25%. For the same substance, the “Ability of self-care, absolute number of patients” value [3, 8] was 7, the “Ability of self-care, percentage of patients” value [3, 8] was 35% and the “Ability of self-care, absolute number of patients” value [3, 9] was 17. For the same substance, the “Ability of self-care, percentage of patients” value [3, 9] was “(85)* %”, the “Level of dyspnea: markedly or moderately improved, absolute number of patients” value [4, 10] was 8 and the “Level of dyspnea: markedly or moderately improved, percentage of patients” value [4, 10] was “(40)^# %”. For the same substance, the “Level of dyspnea: markedly or moderately worsened, absolute number of patients” value [4, 8] was 1, the “Level of dyspnea: markedly or moderately worsened, percentage of patients” value [4, 8] was “(5)^# %” and the “Level of dyspnea: markedly or moderately improved, absolute number of patients” value [4, 9] was 12. For the same substance, the “Level of dyspnea: markedly or moderately improved, percentage of patients” value [4, 9] was “(60)^# %”, the “Level of dyspnea: markedly or moderately worsened, absolute number of patients” value [4, 9] was 1 and the “Level of dyspnea: markedly or moderately worsened, percentage of patients” value [4, 9] was “(5)^# %”. For the same substance, the “Congestion: moderate or severe edema, absolute number of patients” value ([5]; Baseline) was 15, the “Congestion: moderate or severe edema, percentage of patients” value ([5]; Baseline) was “(75) %” and the “Congestion: moderate or severe rales, absolute number of patients” value ([5]; Baseline) was 16. The “Congestion: moderate or severe rales, percentage of patients” value ([5]; Baseline) was “(80) %”, the “Congestion: moderate or severe edema, absolute number of patients” value [5, 8] was 10 and the “Congestion: moderate or severe edema, percentage of patients” value [5, 8] was “(50) %”. For the same substance, the “Congestion: moderate or severe rales, absolute number of patients” value [5, 8] was 8, the “Congestion: moderate or severe rales, percentage of patients” value [5, 8] was “(40)^# %” and the “Congestion: moderate or severe edema, absolute number of patients” value [5, 9] was 6. For the same substance, the “Congestion: moderate or severe edema, percentage of patients” value [5, 9] was “(30)^# %”, the “Congestion: moderate or severe rales, absolute number of patients” value [5, 9] was 5 and the “Congestion: moderate or severe rales, percentage of patients” value [5, 9] was “(25)^# %”. For the same substance, the “Level of general wellbeing: markedly or moderately improved, absolute number of patients” value ([6]; Day 3) was 9, the “Level of general wellbeing: markedly or moderately improved, percentage of patients” value ([6]; Day 3) was “(45)# %” and the “Level of general wellbeing: markedly or moderately worsened, absolute number of patients” value ([6]; Day 3) was 2. The “Level of general wellbeing: markedly or moderately worsened, percentage of patients” value ([6]; Day 3) was “(10)# %”, the “Level of general wellbeing: markedly or moderately improved, absolute number of patients” value ([6]; Day 10) was 11 and the “Level of general wellbeing: markedly or moderately improved, percentage of patients” value ([6]; Day 10) was “(55)# %”. For the same substance, the “Level of general wellbeing: markedly or moderately worsened, absolute number of patients” value ([6]; Day 10) was 1, the “Level of general wellbeing: markedly or moderately worsened, percentage of patients” value ([6]; Day 10) was 5% and the “Clinical signs of cardiac decompensation (congestion, dyspnea, circulating NT-proBNP)” value [7] was “ameliorates clinical signs of cardiac decompensation”. For the same substance, the “Clinical status of hospice patients” value [7] was “markedly improves the clinical status”.
